# Test system: HMEC
# Test: Mammalian cytotoxicity, MTT reduction
# Conditions: not given
row,SMILES,MTT HMEC
1,O=C(CCCCCC/C(=N\O)c1ccc(-c2ccccc2)cc1)NO,6 µM
2,O=C(NO)c1ccc(CCCCCc2ccccc2)cc1 [Cpd 3],9 µM
3,COC(c1ccc(N(C)C)cc1)C(C)/C=C(C)/C=C/C(=O)NO (stereo not drawn) [Cpd 10],50 µM
4,CC(/C=C/C(=O)NO)=C\C(C)Cc1ccc(N(C)C)cc1 (stereo not drawn) [Cpd 12],44 µM
5,O=C(NO)c1ccc(CCCC(O)c2ccc3ccccc3c2)cc1 (stereo not drawn) [Cpd 16],25 µM
6,O=C(Cc1ccccc1)NC(=S)Nc1ccc(Nc2ccnc3ccsc23)cc1 [Cpd 20],50 µM
7,N#Cc1ccc(-c2ccc(OCCC(=O)NO)cc2)cc1 [Cpd 21],50 µM
8,O=C(NO)c1ccc(CN2c3ccccc3NC(=O)[C@H]2Cc2ccc3ccccc3c2)cc1 [Cpd 22],8 µM
9,CC(/C=C/C(=O)NO)=C\C(C)Cc1ccc(N(C)C)cc1 (stereo not drawn) [drawing 125],44 µM
10,CC(/C=C/C(=O)NO)=C\C(C)Cc1ccc(N(C)C)cc1 (stereo not drawn) [drawing 131],44 µM
11,CC(/C=C/C(=O)NO)=C\C(C)Cc1ccc(N(C)C)cc1 (stereo not drawn) [drawing 137],44 µM

# Same assay, conditions: Table 9 head
row,SMILES,MTT HMEC
1,CC(/C=C/C(=O)NO)=C\C(C)Cc1ccc(N(C)C)cc1 (stereo not drawn) [drawing 143],4.4e-05 µM
2,O=C(Cc1ccc(CCCCc2ccccc2)cc1)NO [drawing 144],1.3e-05 µM
3,O=C(Cc1ccc(CCCc2ccccc2)cc1)NO [drawing 145],4.7e-05 µM
4,O=C(CCc1ccc(CCCc2ccccc2)cc1)NO [drawing 146],4e-05 µM
5,O=C(CCc1ccc(CCc2ccccc2)cc1)NO [drawing 147],1e-05 µM

# Test system: A. fumigatus ATCC 1022
# Test: MIC80 and checkerboard synergy, broth microdilution (NCCLS M38-A)
# Assay type: cell-based, Aspergillus fumigatus
# Conditions: with fluconazole; A. fumigatus ATCC 1022; 48 hours
row,SMILES,conc. for 4-fold synergy
1,O=C(Cc1ccc(CCCCc2ccccc2)cc1)NO [drawing 149],>1 µg/mL

# Same assay, conditions: with itraconazole; A. fumigatus ATCC 1022; 48 hours
row,SMILES,conc. for 4-fold synergy
1,O=C(Cc1ccc(CCCCc2ccccc2)cc1)NO [drawing 151],>1 µg/mL

# Same assay, conditions: with ketoconazole; A. fumigatus ATCC 1022; 48 hours
row,SMILES,conc. for 4-fold synergy
1,CC(/C=C/C(=O)NO)=C\C(C)Cc1ccc(N(C)C)cc1 (stereo not drawn) [Cpd 12],0.125 µg/mL

# Same assay, conditions: with voriconazole; A. fumigatus (ATCC 1022); 48 hours
row,SMILES,conc. for 4-fold synergy
1,O=C(Cc1ccc(CCCCc2ccccc2)cc1)NO [drawing 153],1 µg/mL

# Test system: HDAC
# Test: HDAC inhibitory activity in fungal protoplasts (Fluor-de-Lys)
# Assay type: cell-based, Candida albicans
# Conditions: C. albicans protoplasts
# Protocol: Protoplasts of C. albicans and C. glabrata are prepared by the […] method of Franzusoff et al.
row,SMILES,HDAC inhibition IC50
1,C[C@H](/C=C/C=C/C(=O)NO)Oc1ccc(-c2ccccc2)cc1 [Cpd 15],> 20 µg/mL
2,O=C(/C=C/c1ccc(CNc2cccc(Cl)c2)cc1)NO [Cpd 18],~16 µg/mL
3,O=C(Cc1ccccc1)NC(=S)Nc1ccc(Nc2ccnc3ccsc23)cc1 [Cpd 20],> 20 µg/mL
4,O=C(NO)c1ccc(CN2c3ccccc3NC(=O)[C@H]2Cc2ccc3ccccc3c2)cc1 [Cpd 22],~0.6 µg/mL
5,O=C(NO)c1ccc(CN2c3ccccc3NC(=O)[C@H]2Cc2cccc(C(F)(F)F)c2)cc1 [Cpd 23],~0.6 µg/mL

# Same assay, conditions: C. albicans protoplasts; concentration not given
row,SMILES,"HDAC inhibition, per cent in parentheses beside IC50 >20"
1,C[C@H](/C=C/C=C/C(=O)NO)Oc1ccc(-c2ccccc2)cc1 [Cpd 15],18%
2,O=C(Cc1ccccc1)NC(=S)Nc1ccc(Nc2ccnc3ccsc23)cc1 [Cpd 20],16%

# Test system: C. glabrata (ATCC 90030)
# Test: MIC80 and checkerboard synergy with antifungal agents
# Assay type: cell-based, Candida glabrata
# Conditions: Nakaseomyces glabratus, ATCC90030; compound alone; C. glabrata (ATCC 90030); MIC50
row,SMILES,MIC50
1,O=C(Cc1ccc(CCCCCc2ccccc2)cc1)NO,6.25 µg/mL
2,O=C(Cc1ccc(CCCCc2ccc(C(F)(F)F)cc2)cc1)NO,> 25 µg/mL
3,O=C(Cc1cccc(CCCCc2ccccc2)c1)NO,32 µg/mL
4,O=C(Cc1ccc(CCC#Cc2ccc3nonc3c2)cc1)NO,> 25 µg/mL
5,O=C(Cc1ccc(CCCCc2ccc3c(c2)OCO3)cc1)NO,> 25 µg/mL
6,O=C(Cc1ccc(CCCCc2ccccc2C(F)(F)F)cc1)NO,12.5 µg/mL
7,O=C(Cc1ccc(CCCCc2cccc(C(F)(F)F)c2)cc1)NO,12.5 µg/mL
8,O=C(Cc1ccc(CCCCc2cc(F)c(F)cc2F)cc1)NO,3.1 µg/mL
9,O=C(Cc1ccc(CCCCc2ccc3[nH]ccc3c2)cc1)NO,> 25 µg/mL

# Same assay, conditions: Nakaseomyces glabratus, ATCC90030; fenpropimorph alone; C. glabrata; read-out: Fenpropimorph MIC
row,SMILES,MIC
1,"CC(Cc1ccc(C(C)(C)C)cc1)CN1C[C@@H](C)O[C@@H](C)C1 (stereo partly drawn) [Fenpropimorph, fenpropimorph, reference compound]",6.25 µg/mL

# Same assay, conditions: with itraconazole; C. glabrata (ATCC 90030); 24 hr
row,SMILES,conc. for 4-fold synergy (24 hr)
1,CC(/C=C/C(=O)NO)=C\C(C)Cc1ccc(N(C)C)cc1 (stereo not drawn) [drawing 131],1.56 (24 hr) μg/ml

# Same assay, conditions: with ketoconazole; C. glabrata (ATCC 90030); 24 hr
row,SMILES,conc. for 4-fold synergy (24 hr)
1,Nc1ccc(-c2cccs2)cc1-c1cccs1 [Cpd 19],0.5 (24 hr) μg/ml

# — patent US8759400B2, “Histone deacetylase inhibitors for enhancing activity of antifungal agents” (MethylGene Inc., priority 2005, dated 2014)
